Data: patent publication US20170239351A1, “Therapeutic Combinations of a BTK Inhibitor, a PI3K Inhibitor, a JAK-2 Inhibitor, a PD-1 Inhibitor, and/or a PD-L1 Inhibitor” (Acerta Pharma B.V., priority 2014, published 2017)
Entries after “also recorded” stand apart in the source; their conditions may differ.

Experiments:
CD8^+ T cell function = assay: IFN-γ level measurements for CD8+ T cell function; assay type: cell-based; settings: relative to vehicle
relapsed/refractory CLL = assay: Clinical study of Formula (XVIII) in relapsed/refractory CLL/SLL
[1] = In vitro metabolism in hepatocytes with 14C-labeled drug; assay type: in vitro ADME, mouse, rat, dog, rabbit, monkey, and human
[2] = tested on: expression of activation markers CD69 and CD86; assay: In vivo potency: BCR stimulated with IgM, CD69 and CD86 expression by flow cytometry; settings: mice gavaged, 3 h post-dose
Method: Mice were gavaged at increasing drug concentration and sacrificed at one time point (3 h post-dose). BCR is stimulated with IgM and the expression of activation markers CD69 and CD86 are monitored by flow cytometry to determine EC50's.

CLL = assay: Clinical study of Formula (XVIII) in CLL; assay type: in vivo
EGFR = EGFR (Homo sapiens, UniProt P00533); assay: EGF-induced EGFR phosphorylation in A431 cells (phosphoflow); settings: 10 μM (highest concentration tested)
Chain of EGFR (P00533 25-1210): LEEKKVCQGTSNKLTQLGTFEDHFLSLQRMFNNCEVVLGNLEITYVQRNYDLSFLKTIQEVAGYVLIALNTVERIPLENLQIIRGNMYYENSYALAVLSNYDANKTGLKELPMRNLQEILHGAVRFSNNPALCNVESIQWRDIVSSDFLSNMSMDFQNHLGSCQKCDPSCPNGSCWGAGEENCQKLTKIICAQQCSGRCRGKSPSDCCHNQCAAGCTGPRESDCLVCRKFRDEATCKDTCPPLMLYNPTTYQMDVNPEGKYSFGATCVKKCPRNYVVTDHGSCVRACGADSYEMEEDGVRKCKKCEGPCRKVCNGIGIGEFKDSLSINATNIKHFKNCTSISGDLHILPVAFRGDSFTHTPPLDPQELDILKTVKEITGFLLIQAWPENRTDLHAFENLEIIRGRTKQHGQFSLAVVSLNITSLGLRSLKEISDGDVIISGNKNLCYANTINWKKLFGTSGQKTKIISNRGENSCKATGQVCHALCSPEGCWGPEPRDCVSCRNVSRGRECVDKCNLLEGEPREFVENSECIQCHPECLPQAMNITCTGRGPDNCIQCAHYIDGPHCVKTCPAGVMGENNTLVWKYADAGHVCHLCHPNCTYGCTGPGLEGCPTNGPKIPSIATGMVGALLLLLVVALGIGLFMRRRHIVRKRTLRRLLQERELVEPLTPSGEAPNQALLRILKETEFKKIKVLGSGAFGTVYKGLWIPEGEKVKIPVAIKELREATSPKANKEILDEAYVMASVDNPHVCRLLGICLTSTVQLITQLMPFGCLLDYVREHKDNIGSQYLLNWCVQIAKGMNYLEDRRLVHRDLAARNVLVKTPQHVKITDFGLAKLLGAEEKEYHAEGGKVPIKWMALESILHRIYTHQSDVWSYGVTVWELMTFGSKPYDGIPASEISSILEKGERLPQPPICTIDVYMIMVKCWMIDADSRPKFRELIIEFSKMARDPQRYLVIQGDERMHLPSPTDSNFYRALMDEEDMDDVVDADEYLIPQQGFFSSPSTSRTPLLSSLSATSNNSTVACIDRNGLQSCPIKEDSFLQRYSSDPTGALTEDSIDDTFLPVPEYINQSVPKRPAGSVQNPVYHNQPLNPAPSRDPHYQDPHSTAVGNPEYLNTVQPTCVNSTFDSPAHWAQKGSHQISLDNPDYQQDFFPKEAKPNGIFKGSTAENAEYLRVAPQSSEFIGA

BTK = BTK (Homo sapiens, UniProt Q06187); assay: BTK target occupancy in relapsed/refractory CLL patients; assay type: in vivo; settings: at lower dosage versus ibrutinib
Chain of BTK (Q06187 whole entry): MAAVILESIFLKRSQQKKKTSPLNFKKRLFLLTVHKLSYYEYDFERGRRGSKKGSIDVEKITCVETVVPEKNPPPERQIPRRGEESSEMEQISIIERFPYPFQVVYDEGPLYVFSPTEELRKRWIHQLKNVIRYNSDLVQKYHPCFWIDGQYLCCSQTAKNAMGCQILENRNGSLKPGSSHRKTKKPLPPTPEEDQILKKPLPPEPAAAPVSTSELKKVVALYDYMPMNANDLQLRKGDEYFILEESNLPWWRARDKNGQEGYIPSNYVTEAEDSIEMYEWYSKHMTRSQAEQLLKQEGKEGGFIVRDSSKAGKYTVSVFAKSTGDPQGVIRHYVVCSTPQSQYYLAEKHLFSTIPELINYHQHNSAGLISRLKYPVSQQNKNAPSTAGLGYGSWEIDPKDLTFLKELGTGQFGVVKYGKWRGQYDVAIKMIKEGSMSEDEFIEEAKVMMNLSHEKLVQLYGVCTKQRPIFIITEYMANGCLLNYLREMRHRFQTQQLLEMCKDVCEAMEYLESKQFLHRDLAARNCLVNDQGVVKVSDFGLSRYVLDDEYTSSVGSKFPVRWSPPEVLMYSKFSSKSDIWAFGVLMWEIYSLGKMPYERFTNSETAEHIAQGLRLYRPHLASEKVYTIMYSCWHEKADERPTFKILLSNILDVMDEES

CYP3A4 = CYP3A4 (Homo sapiens, UniProt P08684); assay: In vitro CYP metabolism and CYP interaction studies; assay type: in vitro ADME
Chain of CYP3A4 (P08684 whole entry): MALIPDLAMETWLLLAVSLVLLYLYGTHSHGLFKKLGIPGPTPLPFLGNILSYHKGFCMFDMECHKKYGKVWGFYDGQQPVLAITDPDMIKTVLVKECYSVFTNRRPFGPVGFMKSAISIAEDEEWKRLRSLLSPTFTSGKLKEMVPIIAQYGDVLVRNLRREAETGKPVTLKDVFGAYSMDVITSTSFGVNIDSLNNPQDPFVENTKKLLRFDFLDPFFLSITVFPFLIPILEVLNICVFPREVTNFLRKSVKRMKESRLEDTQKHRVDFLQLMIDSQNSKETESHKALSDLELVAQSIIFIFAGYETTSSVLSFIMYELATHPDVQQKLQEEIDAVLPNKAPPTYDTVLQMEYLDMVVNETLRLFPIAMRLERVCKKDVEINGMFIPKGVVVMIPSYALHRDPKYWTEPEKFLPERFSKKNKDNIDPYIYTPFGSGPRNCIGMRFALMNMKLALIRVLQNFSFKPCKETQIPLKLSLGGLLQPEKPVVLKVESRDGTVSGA

CD8^+ T cells = assay: Cytotoxic T cell (CTL) assay; assay type: cell-based; settings: 500 nM
Method: Without being bound by any theory, CD8^+ T cells have two primary effector functions: (1) produce large amounts of IFN-γ (which activates macrophages), and (2) cytolytic activity. […] The targets were B lymphoblasts from lipopolysaccharide (LPS) treated cultures. The assay was performed by incubating different ratios of effectors:targets for 4 hours.

KrasL2 NSCLC = KrasL2 NSCLC model; settings: in vivo
B cell lymphoma = assay: Veterinary clinical trial in canine B cell lymphoma; assay type: in vivo, companion dogs
Description: Canine B cell lymphoma exists as a pathological entity that is characterized by large anaplastic, centroblastic or immunoblastic lymphocytes with high proliferative grade, significant peripheral lymphadenopathy and an aggressive clinical course. While some dogs respond initially to prednisone, most canine lymphomas progress quickly and must be treated with combination therapies, including cyclophosphamide, vincristine, doxorubicin, and prednisone (CHOP), or other cytotoxic agents. In their histopathologic features, clinical course, and high relapse rate after initial treatment, canine B cell lymphomas resemble diffuse large B cell lymphoma (DLBCL) in humans. Thus, responses of canine B cell lymphomas to experimental treatments are considered to provide proof of concept for therapeutic candidates in DLBCL.
Enrollment has completed for both arms.
Intra-subject dose escalation was allowed. Six of the 11 dogs that initiated at 2.5 or 5 mg/kg once daily were escalated and completed the study with dosages of 10 mg/kg twice daily. Among all the dose cohorts, 8 dogs had shrinkage of target lesions >20%; the best tumor responses were between 45-49% reduction in the sum of target lesions in two dogs. […] CR were defined as disappearance of all evidence of disease per evaluator judgment, and absence of new lesions. Vali, et al., Vet. Comp. Oncol. 2010, 8, 28-37. […]

T helper 17 (Th17) cells = assay: Effect on T helper 17 (Th17) cells; assay type: cell-based
CD8^+ T cell = assay: CD8+ T cell viability; assay type: cell-based

In the case of `CC#CC(=O)N1CCC[C@H]1c1nc(-c2ccc(C(=O)Nc3ccccn3)cc2)c2c(N)nccn12` [Formula (XVIII), (S)-4-(8-amino-3-(1-(but-2-ynoyl)pyrrolidin-2-yl)imidazo[1,5-a]pyrazin-1-yl)-N-(pyridin-2-yl)benzamide], the “CD8+ T cell function as measured by IFN-γ level” value (CD8^+ T cell function) is reported as “no effect on CD8^+ T cell function”, the “PD, %” value (relapsed/refractory CLL; 100 mg BID (N = 3)) is reported as “(0) %” and the “PR, %” value (relapsed/refractory CLL; 100 mg BID (N = 3)) is reported as “(100) %”. The “PD, %” value (relapsed/refractory CLL; 100 mg QD (N = 8)) was “(0) %”, the “PR, %” value (relapsed/refractory CLL; 100 mg QD (N = 8)) was “(88) %” and the “PD, %” value (relapsed/refractory CLL; 175 mg QD (N = 8)) was “(0) %”. The “PR + L, %” value (relapsed/refractory CLL; 175 mg QD (N = 8)) was “(37) %”, the “PR, %” value (relapsed/refractory CLL; 175 mg QD (N = 8)) was “(63) %” and the “PD, %” value (relapsed/refractory CLL; 250 mg QD (N = 7)) was “(0) %”. For the same compound, the “PR + L, %” value (relapsed/refractory CLL; 250 mg QD (N = 7)) was “(29) %”, the “PR, %” value (relapsed/refractory CLL; 250 mg QD (N = 7)) was “(71) %” and the “PD, %” value (relapsed/refractory CLL; 400 mg QD (N = 5)) was “(0) %”. For the same compound, the “PR + L, %” value (relapsed/refractory CLL; 400 mg QD (N = 5)) was “(40) %”, the “PR, %” value (relapsed/refractory CLL; 400 mg QD (N = 5)) was “(40) %” and the “PD, %” value (relapsed/refractory CLL; All Cohorts (N = 31)) was “(0) %”. The “PR + L, %” value (relapsed/refractory CLL; All Cohorts (N = 31)) was “(23) %”, the “PR, %” value (relapsed/refractory CLL; All Cohorts (N = 31)) was “(71) %” and the “time of treatment to reach the same median % change in SPD” value (relapsed/refractory CLL; CLL patients) was 7 months. For the same compound, the “Headache, treatment-related adverse event” value (relapsed/refractory CLL; Grade 1/2, All (N = 44)) was 7 (16) n (%), the “Diarrhea, treatment-related adverse event” value (relapsed/refractory CLL; Grade 1, All (N = 44)) was 4 (9) n (%) and the “Increased tendency to bruise, treatment-related adverse event” value (relapsed/refractory CLL; Grade 1, All (N = 44)) was 6 (14) n (%). The “Petechiae, treatment-related adverse event” value (relapsed/refractory CLL; Grade 1, All (N = 44)) was 3 (7) n (%), the “dose-limiting toxicities (DLTs)” value (relapsed/refractory CLL; human, in vivo) was “No DLTs were observed” and the “grade of adverse events” value (relapsed/refractory CLL; human, in vivo) was “only grade 1 AEs were observed”. For the same compound, the lymphocytosis (relapsed/refractory CLL; human, in vivo) was “A lack of lymphocytosis was observed”, the “plasma CXCL12 and CCL2 levels” value (relapsed/refractory CLL; human, in vivo) was “significant decrease” and the “treatment-related serious adverse events (SAEs)” value (relapsed/refractory CLL; human, in vivo) was “No treatment-related serious adverse events (SAEs) were observed”. The “progression in patients with the 17p deletion” value (relapsed/refractory CLL; to date) was “no 17p patients have progressed”, the metabolites found [1] was “two mono-oxidized metabolites and a glutathione conjugate” and the unique human metabolite [1] was “No unique human metabolite was identified”. The “inhibition of expression of activation markers CD69 and CD86, compared with ibrutinib” value [2] was “more potent at inhibiting expression of activation makers than ibrutinib”, the apoptosis (CLL; CLL patients treated) was “increased apoptosis” and the “sum of the product of greatest diameters (SPD)” value (CLL; CLL patients, compared with ibrutinib) was “decreases more rapidly”. The “absolute lymphocyte count (ALC)” value (CLL; CLL patients, relative to ibrutinib data of Byrd, et al.) was “much smaller relative increase and much faster decrease”, the CCL2 levels (CLL; patients treated) was “decrease in CCL2 levels” and the CXCL12 levels (CLL; patients treated) was “decrease in CXCL12 levels”. The “inhibition of EGFR phosphorylation” value (EGFR) was “no inhibition; also recorded: does not inhibit EGFR”, the BTK target occupancy (BTK) was “improved BTK target occupancy” and the “CYP responsible for loss of parent drug” value (CYP3A4) was “metabolized by CYP3A4”. For the same compound, the “drug-drug interaction potential via CYP enzymes” value (CYP3A4) was “very unlikely to cause clinical drug-drug interactions”, the “CD8^+ T cell function as % cytotoxicity” value (CD8^+ T cells) was “no effect on CD8^+ T cell function” and the “immunosuppressive tumor associated MDSCs” value (KrasL2 NSCLC) was “significant reduction in immunosuppressive tumor associated MDSCs”. For the same compound, the “immunosuppressive tumor associated TAMs” value (KrasL2 NSCLC) was “significant reduction in immunosuppressive tumor associated TAMs”, the “immunosuppressive tumor associated Tregs” value (KrasL2 NSCLC) was “significant reduction in immunosuppressive tumor associated Tregs” and the “complete responses (CR)” value (B cell lymphoma; Arm 1: 21 dogs, Arm 2: 10 dogs) was “not observed”. For the same compound, the “Median time to best response” value (B cell lymphoma; dog, in vivo) was 7 days, the “effect on Th17 cells” value (T helper 17 (Th17) cells) was “no adverse effect on T helper 17 (Th17) cells” and the “effect on CD8+ T cell viability” value (CD8^+ T cell) was “no effect on CD8^+ T cell viability”.
